Measurements: ChEMBL document CHEMBL6153172, “MALT1 Inhibitors and Degraders: Strategies for NF-κB-Driven Malignancies” (J Med Chem, 2025)
One block for each molecule: values may come before it. Where a SMILES comes first, the peptide text is derived from it. The star is where a group is joined. Cbz = O=C(OCc1ccccc1)*; CH2F = FC*

Columns and labels:
OCI-Ly3 [1] = experiment: Growth inhibition of human OCI-Ly3 cells
[2] = molecular target: T1, Mucosa-associated lymphoid tissue lymphoma translocation protein 1 (Homo sapiens, UniProt Q9UDY8)
T1 sequence (Q9UDY8 whole entry): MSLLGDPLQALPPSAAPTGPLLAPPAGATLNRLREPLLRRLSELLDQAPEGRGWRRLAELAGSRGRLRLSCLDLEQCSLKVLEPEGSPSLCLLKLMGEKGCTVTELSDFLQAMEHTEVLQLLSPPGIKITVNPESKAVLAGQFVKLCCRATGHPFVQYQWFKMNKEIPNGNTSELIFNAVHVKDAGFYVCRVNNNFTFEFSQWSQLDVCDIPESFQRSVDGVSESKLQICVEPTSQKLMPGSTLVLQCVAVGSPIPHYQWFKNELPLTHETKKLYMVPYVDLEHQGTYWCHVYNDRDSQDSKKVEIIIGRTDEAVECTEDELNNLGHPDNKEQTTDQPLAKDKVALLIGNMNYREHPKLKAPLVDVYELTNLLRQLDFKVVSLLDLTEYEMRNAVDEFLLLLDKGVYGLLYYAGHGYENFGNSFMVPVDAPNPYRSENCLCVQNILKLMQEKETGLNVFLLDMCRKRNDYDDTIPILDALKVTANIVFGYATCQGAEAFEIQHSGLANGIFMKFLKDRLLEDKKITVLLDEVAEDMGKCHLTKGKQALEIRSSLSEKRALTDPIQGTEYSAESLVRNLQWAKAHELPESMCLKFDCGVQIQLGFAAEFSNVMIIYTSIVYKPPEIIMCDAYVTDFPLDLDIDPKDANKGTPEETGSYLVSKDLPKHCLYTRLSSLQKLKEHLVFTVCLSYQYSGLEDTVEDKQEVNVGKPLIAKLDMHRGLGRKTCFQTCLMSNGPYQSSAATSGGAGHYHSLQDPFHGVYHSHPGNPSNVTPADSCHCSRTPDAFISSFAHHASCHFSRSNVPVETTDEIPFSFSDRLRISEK
Description: Inhibition of MALT1 (unknown origin)

[3] = molecular target: T1, Mucosa-associated lymphoid tissue lymphoma translocation protein 1; experiment: Inhibition MALT1 (unknown origin) using Ac-LRSR-AMC as substrate by fluorescence based analysis
[4] = molecular target: T1, Mucosa-associated lymphoid tissue lymphoma translocation protein 1; experiment: biochemical
Description: Inhibition of C-terminal human full length wild type MALT1 (329 to 824 residues) extracted from baculovirus infected Sf21 cells using Ac-Leu-Arg-Ser-Arg-Rh110-dPro incubated for 60 mins by fluorescence based analysis

[5] = molecular target: T1, Mucosa-associated lymphoid tissue lymphoma translocation protein 1; experiment: biochemical; remark: listed apart in the source
Description: Inhibition of human full length His-tagged MALT1 (1 to 824 residues) infected in baculovirus infected Insect cells using Ac-LRSR-AMC as substrate incubated for 1 hr by HTRF assay

[6] = molecular target: T1, Mucosa-associated lymphoid tissue lymphoma translocation protein 1; experiment: Inhibition of N-terminal human recombinant MALT1 expressed in Jurkat cells assessed as suppression of IL-2 secretion
[7] = molecular target: T1, Mucosa-associated lymphoid tissue lymphoma translocation protein 1; experiment: biochemical; remark: listed apart in the source
Description: Inhibition of N-terminal recombinant human MALT1 (329 to 824 residues) extracted from baculovirus infected Sf21 cells using c-LRSR~Rhodamine110-DP as substrate by fluorescence based assay

[8] = molecular target: T1, Mucosa-associated lymphoid tissue lymphoma translocation protein 1; remark: listed apart in the source
Description: Binding affinity to full length C-terminal His-tagged wild-type MALT1 catalytic domain (329 to 566 residues) (unknown origin) extracted from Escherichia coli BL21 (DE3) assessed as inhibition constant

OCI-Ly3 [9] = experiment: Antiproliferative activity against human OCI-Ly3 cells; type: functional, cell-based
[10] = molecular target: T1, Mucosa-associated lymphoid tissue lymphoma translocation protein 1; experiment: Inhibition of GST-tagged human recombinant MALT1 extracted from Escherichia coli using Ac-LRSR-AMC as substrate by fluorescence based analysis

SMILES: CC(C)[C@H](NC(=O)OCc1ccccc1)C(=O)N[C@@H](CCCNC(=N)N)C(=O)N1CCC[C@H]1C(=O)N[C@@H](CCCNC(=N)N)C(=O)CF
GI50 (OCI-Ly3 [1]): 2500 nM

SMILES: CO[C@@H](C)c1c(NC(=O)Nc2cncc(C(F)(F)F)c2)cnc2cc(Cl)nn12
IC50 [3]: 4 nM

SMILES: CO[C@@H](C)c1c(NC(=O)Nc2cnc3c(c2)COc2ccnn2-3)cnc2cc(Cl)nn12
IC50 [5]: 34 nM

SMILES: C[C@]1(C(F)(F)F)CN(C(=O)Nc2cnc(-n3nccn3)c(Cl)c2)c2cnc3cc(Cl)nn3c21
IC50 [5]: < 10 nM

SMILES: CC1(C(F)(F)F)CN(C(=O)Nc2ccc3nonc3c2)c2cnc3cc(Cl)nn3c21 (stereo not drawn)
IC50 [5]: 34 nM

SMILES: O=C(Nc1cncc(C(F)(F)F)c1)Nc1cnn2cc(Cl)nc2c1C1CC1
IC50 [2]: < 100 nM

SMILES: CC(C)C[C@H](NC(=O)OCc1ccccc1)C(=O)N[C@H](C(=O)N1CCC[C@H]1C(=O)N[C@@H](CCCNC(=N)N)C(=O)CF)C(C)C (Cbz-LVPR-CH2F)
GI50 (OCI-Ly3 [1]): 768 nM

SMILES: CC(C)[C@H](NC(=O)OCc1ccccc1)C(=O)N1CCC[C@H]1C(=O)N[C@@H](CCCNC(=N)N)C(=O)CF (Cbz-Val-Pro-Arg-CH2F)
GI50 (OCI-Ly3 [1]): 5620 nM
Ki [8]: 30 nM

SMILES: CC1(C)CCC2=C(O1)c1ccccc1C(=O)C2=O [LAPACHONE]
IC50 (OCI-Ly3 [9]): 4000 nM

SMILES: CN(C)CCCN1c2ccccc2Sc2ccccc21 [PROMAZINE]
IC50 [10]: 3790 nM

The next lines start with the values.

GI50 (OCI-Ly3 [1]): 87 nM
SMILES: CC(C)[C@H](NC(=O)c1ccc(Br)cc1)C(=O)N1CCC[C@H]1C(=O)N[C@@H](CCCNC(=N)N)C(=O)CF

IC50 [2]: < 50 nM
SMILES: COC(C)c1c(NC(=O)Nc2cnc(-n3nccn3)c(C(F)(F)F)c2)cnc2sc(C)nc12 (stereo not drawn)

IC50 [2]: 20 nM
SMILES: CO[C@@H](c1c(NC(=O)Nc2cnc(-n3nccn3)c(C(F)(F)F)c2)cnc(C)c1C#N)C1CC1

IC50 [4]: 14 nM
SMILES: CO[C@H](C)c1c(NC(=O)Nc2cnc(C(=O)N3CCCC3)c(Cl)c2)cnc2cc(Cl)nn12

IC50 [6]: 53 nM
IC50 [7]: 16 nM
SMILES: CCc1ccc2cnn(C)c2c1NS(=O)(=O)c1ccc(N2C[C@](O)(C(F)(F)F)CC2=O)nc1

IC50 [5]: 15 nM
SMILES: O=C1NC2C=CC(n3ncc(C(=O)Nc4cnc(-n5nccn5)c(Cl)c4)c3C(F)(F)F)=C3C=CC=C1C32 (stereo not drawn)
